Entries after “also recorded” stand apart in the source; their conditions may differ.
Assays:
[1] = tested on: Western diet (WD) fed mice; assay: Western diet mouse model of diet-induced fatty liver disease: serum ALT, liver TG, histology, body weight; assay type: in vivo, mice (male B6 129SF1/J)
Experimental: Study design. The overall objective of the study was to investigate if […] can alleviate diet induced liver steatosis and inflammation in vivo. These NAFLD features were induced in mice by feeding the animals a WD and SW for 8 weeks. The drinking water for these mice was then supplemented with low and high doses of […], while continuing the WD for another 8 weeks. The phenotypic changes were assessed by measuring body weight gain, serum ALT, hepatic inflammatory cytokines, and histopathological examination of liver tissue. To investigate potential mechanisms of action, a series of omics analyses were performed on fecal material (metagenomics and metabolomics) and liver tissue (metabolomics and proteomics). To determine cell-type specific signaling mediating […] effects in macrophages, an in vitro cell culture model was used. The histopathological scoring of liver sections was blinded; all other analyses were not blinded. Sample processing and statistical analysis were performed concurrently on treatment and control groups using identical methods. Animal experiments. Male B6 129SF1/J mice at 6 weeks of age were obtained from Jackson Laboratories (Bar Harbor, ME). Mice were acclimatized to the animal facility for one week. At the start of the experiment, mice were randomly divided into four groups (n=10 for each group). Three of the four groups were fed ad libitum a Western diet (WD) with 40% Kcal from fat and containing 0.15% cholesterol (D12079B, Research Diets) and a sugar water (SW) solution (23.1 g/L d-fructose+18.9 g/L d-glucose) as previously described (DIAMOND model (15)). After 8 weeks, the three groups of WD-fed mice were randomly selected for treatment with vehicle (WD group) or low (WD-50 group) or high dose (WD-100 group) of […]. The WD group was fed WD and drank sugar water. The WD-50 and WD-100 groups were fed WD and drank sugar water containing, respectively, 50 or 100 mg […] per kg body weight. The treatments were continued for another 8 weeks. Water bottles containing SW and […] or only SW were changed every other day. A fourth group of mice was fed a low-fat control diet (D12450B, Research Diets) and normal water for 16 weeks (CN group) (FIG. 9A). FIG. 9A presents the study design. Mice belonging to the same treatment group were housed together (5 mice/cage). Mice were maintained on 12:12-h light-dark cycles. All procedures were performed in accordance with Texas A&M University Health Sciences Center Institutional Animal Care and Use Committee guidelines under an approved animal use protocol (AUP #2017-0145). Sample collection. Fecal pellets were collected every other week prior to […] treatment, right before […] treatment, every week during […] treatment, and on the last day of the experiments (FIG. 9B). FIG. 9B presents the sampling scheme. All fecal pellets were flash frozen in liquid nitrogen after collection. Blood samples from the submandibular vein were taken right prior to […] treatment, every other week during […] treatment and on the last day of the experiments. The blood samples were centrifuged at 4,000 g for 15 min at 4° C. to obtain serum. At the end of the experiment, the mice were sacrificed by euthanasia. The liver was quickly excised and rinsed with 10× volume of ice-cold PBS. The right medium lobe of the liver was fixed in 10% neutral formalin for histological analysis. A small piece from right lateral lobe was stored in RNAlater (Sigma Aldrich, St. Louis, MO) using the manufacturer's protocol. The remaining liver tissue samples were flash frozen in liquid nitrogen, homogenized in HPLC-grade water, lyophilized to a dry powder, and stored at -80° C. until further processing. Histological analysis. Formalin fixed liver were embedded in paraffin, sectioned (5 μm) and stained with hematoxylin and eosin (H&E) through VWR histological services (Radnor, PA). Liver histology sections were evaluated by an expert pathologist at Texas A&M University who was blinded to the treatment conditions. […]

liver metabolome = assay: Liver untargeted metabolomics in WD mice; assay type: in vivo, mice (male B6 129SF1/J)
liver proteome = assay: Liver untargeted proteomics in WD mice; assay type: in vivo, mice (male B6 129SF1/J)
[2] = tested on: fatty acid metabolism enzymes in liver; assay: Liver targeted proteomics of fatty acid metabolism and antioxidant enzymes in WD mice; assay type: in vivo, mice (male B6 129SF1/J)
Text: Animal experiments. Male B6 129SF1/J mice at 6 weeks of age were obtained from Jackson Laboratories (Bar Harbor, ME). Mice were acclimatized to the animal facility for one week. At the start of the experiment, mice were randomly divided into four groups (n=10 for each group). Three of the four groups were fed ad libitum a Western diet (WD) with 40% Kcal from fat and containing 0.15% cholesterol (D12079B, Research Diets) and a sugar water (SW) solution (23.1 g/L d-fructose+18.9 g/L d-glucose) as previously described (DIAMOND model (15)). After 8 weeks, the three groups of WD-fed mice were randomly selected for treatment with vehicle (WD group) or low (WD-50 group) or high dose (WD-100 group) of […]. The WD group was fed WD and drank sugar water. The WD-50 and WD-100 groups were fed WD and drank sugar water containing, respectively, 50 or 100 mg […] per kg body weight. The treatments were continued for another 8 weeks. Water bottles containing SW and […] or only SW were changed every other day. A fourth group of mice was fed a low-fat control diet (D12450B, Research Diets) and normal water for 16 weeks (CN group) (FIG. 9A). FIG. 9A presents the study design. Mice belonging to the same treatment group were housed together (5 mice/cage). Mice were maintained on 12:12-h light-dark cycles. All procedures were performed in accordance with Texas A&M University Health Sciences Center Institutional Animal Care and Use Committee guidelines under an approved animal use protocol (AUP #2017-0145). Targeted proteomics. A panel of 15 proteins having differential abundance in the untargeted proteomics data were selected for targeted measurements using product ion scans for representative peptides (Table 7). The relative abundance of a target protein was determined by quantifying the corresponding peptide peak's AUCs in MultiQuant and normalizing the value by the sample protein weight.

AMPK = AMPK Western blot in RAW 264.7 macrophages stimulated with palmitate and LPS; assay type: cell-based, murine; conditions: RAW 264.7, 1 mM I3A pre-treatment
hepatocytes = assay: Cultured hepatocytes (lipid droplet loaded, TNF-α; Fasn/SREBP-1c expression); assay type: cell-based
[3] = tested on: endotoxin-treated murine bone marrow derived macrophages; assay: Cytokine expression in endotoxin-treated bone marrow derived macrophages; assay type: cell-based
[4] = week 16, dose-dependent, WD-50 and WD-100 vs WD

For `O=C([O-])Cc1c[nH]c2ccccc12.[Na+]` [I3A, Indole-3-acetate sodium salt], the “protection against steatosis and immune cell infiltration in livers” value ([1]; I3A up to 100 mg/kg body wt. in drinking water, 16 weeks WD, B6/129 mice) was “dose-dependently protected against these injuries”, the “serum alanine aminotransferase (ALT) levels” value ([1]; high dose I3A (WD-100, 100 mg/kg in drinking water) vs WD, week 10 and beyond) was “significantly reduced serum ALT levels” and the body weight increase ([1]; normalized to week 8 body weight, I3A treated vs WD) was “slowed the weight increase”. The “liver TG” value ([1]; week 16, WD-50 and WD-100 vs WD) was “reduced liver TG in a dose-dependent manner”, the “hepatocyte ballooning (H&E histology score)” value [1, 4] was “improved” and the “liver steatosis (H&E histology score)” value [1, 4] was “improved”. For the same molecule, the “lobular inflammation (H&E histology score)” value [1, 4] was “improved”, the “liver metabolome PLS-DA projection” value (liver metabolome; high dose (WD-100) group vs CN and WD, p<0.005 and p<0.0005) was “only partially overlapped with both CN and the WD group” and the “WD-induced changes in 516 significant annotated liver metabolite features (hierarchical clustering)” value (liver metabolome; high dose of I3A) was “generally reversed these changes”. The “liver metabolome PLS-DA projection” value (liver metabolome; low dose (WD-50) group vs WD, p=0.26) was “overlapped completely with the WD group”, the “liver protein abundance profile (PLS-DA)” value (liver proteome; WD-50 group vs WD) was “not significantly different from the WD group” and the “liver protein abundance profile (PLS-DA)” value (liver proteome; WD-100 group vs WD, p<0.001) was “significantly different from the WD group”. The “decrease of Fasn in liver” value ([2]; I3A treated vs WD) was 86%, the “abundance of antioxidant enzymes catalase (CatB) and glutathione peroxidase 1 (Gpx1) in liver” value ([2]; I3A treatment, WD-50 and WD-100) was “dose-dependent decrease” and the “abundance of acetyl-CoA carboxylase-2 (Acab) in liver” value ([2]; WD-100 group vs WD) was “not significantly different”. The “abundance of fatty acid synthase (Fasn) in liver” value ([2]; WD-100 group vs WD) was “decreased in the WD-100 group compared to the WD group”, the “abundance of mitochondrial β-oxidation enzymes Acadl, Acadm, Acads and Hadh in liver” value ([2]; WD-100 group vs WD) was “significantly decreased in the WD-100 group compared to WD” and the “abundance of peroxisomal β-oxidation enzymes Acox1, Acaala and Acaalb in liver” value ([2]; WD-100 group vs WD) was “A similar trend was observed”. For the same molecule, the “abundance of CD36 in liver” value ([2]; WD-100 group vs WD, sodium salt) was “did not affect CD36 abundance; also recorded: decreased, but not significantly”, the p-AMPK level (AMPK) was “upregulated p-AMPK to baseline levels” and the “total AMPK level” value (AMPK) was “without altering total AMPK”. For the same molecule, the “TNF-α induced production of saturated free fatty acids” value (hepatocytes; cultured hepatocytes loaded with lipid droplets (mimicking steatosis), AhR dependent) was “abrogated TNF-α induced production of saturated free fatty acids”, the “expression of Fasn and SREBP-1c” value (hepatocytes; hepatocytes, AhR dependent manner) was “decreased the expression of Fasn and its transcriptional regulator SREBP-1c” and the “expression of IL-1, TNF-α, and MCP-1” value [3] was “dose-dependently downregulate the expression of IL-1, TNF-α, and MCP-1”.

Source: patent US20240189279A1, “IMMUNOMODULATORY COMPOSITIONS AND METHODS OF USE THEREOF” (THE TEXAS A&M UNIVERSITY SYSTEM, priority 2022, published 2024)
